Source: patent US11053204B2, “Pyrimidinyloxy benzene derivatives as herbicides” (FMC Corporation, priority 2015, dated 2021)

What was measured:
Type in all cases: in vivo
[1] = system: ducksalad (Heteranthera limosa); assay: Test B flooded paddy test, plant response rating; conditions: 250 g ai/ha; Flood; scale of 0 to 100 where 0 is no effect and 100 is complete control; 13 to 15 days
Outline: (§1)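 Pots were flooded to 3 cm above the soil surface at treatment, compound applied directly to the paddy water, and that depth held throughout. Plants were kept in a greenhouse for 13 to 15 days, then visually rated against untreated controls.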

rice (Oryza sativa) = assay: Test B flooded paddy test, plant response rating; conditions: 250 g ai/ha; Flood; scale of 0 to 100 where 0 is no effect and 100 is complete control; 13 to 15 days
Outline: as §1

[2] = system: sedge, umbrella (small-flower umbrella sedge, Cyperus difformis); assay: Test B flooded paddy test, plant response rating; conditions: 250 g ai/ha; Flood; scale of 0 to 100 where 0 is no effect and 100 is complete control; 13 to 15 days
Outline: as §1

[3] = system: blackgrass (Alopecurus myosuroides); assay: Test C preemergence, plant response rating; conditions: Preemergence
Outline: (§2)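 Preemergence: seeds sown in loam–sand blend or silt loam and sprayed with test chemicals in a non-phytotoxic surfactant-containing solvent. Postemergence: potted plants at 2–18 cm (1–4-leaf stage) sprayed with the same formulation. After 13–15 d in greenhouse, visual rating versus controls on 0 (no effect) to 100 (complete control) scale.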

corn (Zea mays) = assay: Test C preemergence, plant response rating; conditions: Preemergence
Outline: as §2

[4] = system: crabgrass, large (large crabgrass, Digitaria sanguinalis); assay: Test C preemergence, plant response rating; conditions: Preemergence
Outline: as §2

[5] = system: foxtail, giant (giant foxtail, Setaria faberii); assay: Test C preemergence, plant response rating; conditions: Preemergence
Outline: as §2

[6] = system: lambsquarters (Chenopodium album); assay: Test C preemergence, plant response rating; conditions: Preemergence
Outline: as §2

[7] = system: morningglory (Ipomoea coccinea); assay: Test C preemergence, plant response rating; conditions: Preemergence
Outline: as §2

[8] = system: nutsedge, yellow (yellow nutsedge, Cyperus esculentus); assay: Test C preemergence, plant response rating; conditions: Preemergence
Outline: as §2

[9] = system: oilseed rape (Brassica napus); assay: Test C preemergence, plant response rating; conditions: Preemergence
Outline: as §2

[10] = system: ragweed (common ragweed, Ambrosia elatior); assay: Test C preemergence, plant response rating; conditions: Preemergence
Outline: as §2

[11] = system: ryegrass, Italian (Italian ryegrass, Lolium multiflorum); assay: Test C preemergence, plant response rating; conditions: Preemergence
Outline: as §2

soybean (Glycine max) = assay: Test C preemergence, plant response rating; conditions: Preemergence
Outline: as §2

[12] = system: velvetleaf (Abutilon theophrasti); assay: Test C preemergence, plant response rating; conditions: Preemergence
Outline: as §2

[13] = system: waterhemp (common waterhemp, Amaranthus rudis); assay: Test C preemergence, plant response rating; conditions: Preemergence
Outline: as §2

[14] = system: wheat (winter wheat, Triticum aestivum); assay: Test C preemergence, plant response rating; conditions: Preemergence
Outline: as §2

[15] = system: surinam grass (Brachiaria decumbens); assay: Test C preemergence, plant response rating
[16] = system: wild poinsettia (Euphorbia heterophylla); assay: Test C preemergence, plant response rating
[17] = system: oat, wild (wild oat Avena fatua); assay: Test C preemergence, plant response rating

O=C(CCCCC(F)(F)F)c1c(Br)cccc1Oc1ncc(Cl)cn1 [Compound 82]
Plant response rating, Ducksalad [1]: 100
Plant response rating, Rice (rice (Oryza sativa)): 30
Plant response rating, Sedge, Umbrella [2]: 95
Plant response rating, Blackgrass ([3]; 125 g ai/ha, scale of 0 to 100): 5
Plant response rating, Blackgrass ([3]; 16 g ai/ha, scale 0 to 100): 0
Plant response rating, Blackgrass ([3]; 31 g ai/ha, scale 0 to 100): 0
Plant response rating, Blackgrass ([3]; 62 g ai/ha, scale 0 to 100): 5
Plant response rating, Corn (corn (Zea mays); 125 g ai/ha, scale of 0 to 100): 5
Plant response rating, Corn (corn (Zea mays); 16 g ai/ha, scale 0 to 100): 0
Plant response rating, Corn (corn (Zea mays); 31 g ai/ha, scale 0 to 100): 0
Plant response rating, Corn (corn (Zea mays); 62 g ai/ha, scale 0 to 100): 0
Plant response rating, Crabgrass, Large ([4]; 125 g ai/ha, scale of 0 to 100): 98
Plant response rating, Crabgrass, Large ([4]; 16 g ai/ha, scale 0 to 100): 60
Plant response rating, Crabgrass, Large ([4]; 31 g ai/ha, scale 0 to 100): 70
Plant response rating, Crabgrass, Large ([4]; 62 g ai/ha, scale 0 to 100): 90
Plant response rating, Foxtail, Giant ([5]; 125 g ai/ha, scale of 0 to 100): 98
Plant response rating, Foxtail, Giant ([5]; 31 g ai/ha, scale 0 to 100): 80
Plant response rating, Foxtail, Giant ([5]; 62 g ai/ha, scale 0 to 100): 90
Plant response rating, Lambsquarters ([6]; 125 g ai/ha, scale of 0 to 100): 70
Plant response rating, Lambsquarters ([6]; 31 g ai/ha, scale 0 to 100): 20
Plant response rating, Lambsquarters ([6]; 62 g ai/ha, scale 0 to 100): 20
Plant response rating, Morningglory ([7]; 125 g ai/ha, scale of 0 to 100): 10
Plant response rating, Morningglory ([7]; 31 g ai/ha, scale 0 to 100): 0
Plant response rating, Morningglory ([7]; 62 g ai/ha, scale 0 to 100): 0
Plant response rating, Nutsedge, Yellow ([8]; 125 g ai/ha, scale of 0 to 100): 0
Plant response rating, Nutsedge, Yellow ([8]; 31 g ai/ha, scale 0 to 100): 0
Plant response rating, Nutsedge, Yellow ([8]; 62 g ai/ha, scale 0 to 100): 0
Plant response rating, Oilseed Rape ([9]; 125 g ai/ha, scale of 0 to 100): 50
Plant response rating, Oilseed Rape ([9]; 31 g ai/ha, scale 0 to 100): 0
Plant response rating, Oilseed Rape ([9]; 62 g ai/ha, scale 0 to 100): 5
Plant response rating, Ragweed ([10]; 125 g ai/ha, scale of 0 to 100): 30
Plant response rating, Ragweed ([10]; 31 g ai/ha, scale 0 to 100): 0
Plant response rating, Ragweed ([10]; 62 g ai/ha, scale 0 to 100): 20
Plant response rating, Ryegrass, Italian ([11]; 125 g ai/ha, scale of 0 to 100): 5
Plant response rating, Ryegrass, Italian ([11]; 31 g ai/ha, scale 0 to 100): 0
Plant response rating, Ryegrass, Italian ([11]; 62 g ai/ha, scale 0 to 100): 5
Plant response rating, Soybean (soybean (Glycine max); 125 g ai/ha, scale of 0 to 100): 0
Plant response rating, Soybean (soybean (Glycine max); 31 g ai/ha, scale 0 to 100): 0
Plant response rating, Soybean (soybean (Glycine max); 62 g ai/ha, scale 0 to 100): 0
Plant response rating, Velvetleaf ([12]; 125 g ai/ha, scale of 0 to 100): 10
Plant response rating, Velvetleaf ([12]; 31 g ai/ha, scale 0 to 100): 0
Plant response rating, Velvetleaf ([12]; 62 g ai/ha, scale 0 to 100): 0
Plant response rating, Waterhemp ([13]; 125 g ai/ha, scale of 0 to 100): 100
Plant response rating, Waterhemp ([13]; 31 g ai/ha, scale 0 to 100): 50
Plant response rating, Waterhemp ([13]; 62 g ai/ha, scale 0 to 100): 100
Plant response rating, Wheat ([14]; 125 g ai/ha, scale of 0 to 100): 0
Plant response rating, Wheat ([14]; 31 g ai/ha, scale 0 to 100): 0
Plant response rating, Wheat ([14]; 62 g ai/ha, scale 0 to 100): 0
Plant response rating, Surinam Grass ([15]; 31 g ai/ha, scale 0 to 100): 10
Plant response rating, Surinam Grass ([15]; 62 g ai/ha, scale 0 to 100): 25
Plant response rating, Surinam Grass ([15]; 125 g ai/ha, scale of 0 to 100): 35
Plant response rating, Poinsettia, Wild ([16]; 31 g ai/ha, scale 0 to 100): 0
Plant response rating, Poinsettia, Wild ([16]; 62 g ai/ha, scale 0 to 100): 0
Plant response rating, Poinsettia, Wild ([16]; 125 g ai/ha, scale of 0 to 100): 20
Plant response rating, Oat, Wild ([17]; 31 g ai/ha, scale 0 to 100): 0
Plant response rating, Oat, Wild ([17]; 62 g ai/ha, scale 0 to 100): 5
Plant response rating, Oat, Wild ([17]; 125 g ai/ha, scale of 0 to 100): 5
